In PubChem BioAssay (NCI):
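Here, GI50 denotes the concentration required for 50% inhibition of growth. TGI: total growth inhibition.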

Columns and labels:
Assay in all cases: inhibition of tumour cell growth, NCI panel, 384-well format
NCI-H522 lung = test system: NCI-H522 lung
K-562 leukemia = test system: K-562 leukemia
OVCAR-3 ovarian = test system: OVCAR-3 ovarian
SK-MEL-28 melanoma = test system: SK-MEL-28 melanoma
HOP-92 NSCLC = test system: HOP-92 NSCLC
HCT-15 colon = test system: HCT-15 colon
SF-268 CNS = test system: SF-268 CNS
HS 578T breast = test system: HS 578T breast
RPMI-8226 leukemia = test system: RPMI-8226 leukemia
SF-295 CNS = test system: SF-295 CNS
UACC-257 melanoma = test system: UACC-257 melanoma
SK-MEL-5 melanoma = test system: SK-MEL-5 melanoma
RXF 393 renal = test system: RXF 393 renal
HCC-2998 colon = test system: HCC-2998 colon
SNB-75 CNS = test system: SNB-75 CNS
NCI-H23 lung = test system: NCI-H23 lung
SNB-19 CNS = test system: SNB-19 CNS
KM12 colon = test system: KM12 colon
EKVX NSCLC = test system: EKVX NSCLC
OVCAR-4 ovarian = test system: OVCAR-4 ovarian
CCRF-CEM leukemia = test system: CCRF-CEM leukemia
IGROV1 ovarian = test system: IGROV1 ovarian
BT-549 breast = test system: BT-549 breast
HOP-62 NSCLC = test system: HOP-62 NSCLC
HT29 colon = test system: HT29 colon
A498 renal = test system: A498 renal
MOLT-4 leukemia = test system: MOLT-4 leukemia
M14 melanoma = test system: M14 melanoma
UACC-62 melanoma = test system: UACC-62 melanoma
OVCAR-8 ovarian = test system: OVCAR-8 ovarian
MALME-3M melanoma = test system: MALME-3M melanoma
MDA-MB-468 breast = test system: MDA-MB-468 breast
PC-3 prostate = test system: PC-3 prostate
NCI-H322M lung = test system: NCI-H322M lung
SF-539 CNS = test system: SF-539 CNS
HL-60(TB) leukemia = test system: HL-60(TB) leukemia
SN12C renal = test system: SN12C renal
T-47D breast = test system: T-47D breast
A549 NSCLC = test system: A549 NSCLC
U251 glioblastoma = test system: U251 glioblastoma
DU-145 prostate = test system: DU-145 prostate
SW-620 colon = test system: SW-620 colon
CAKI-1 renal = test system: CAKI-1 renal
NCI-H460 NSCLC = test system: NCI-H460 NSCLC
SK-MEL-2 melanoma = test system: SK-MEL-2 melanoma
MCF7 breast = test system: MCF7 breast
OVCAR-5 ovarian = test system: OVCAR-5 ovarian
SR leukemia = test system: SR leukemia
MDA-MB-435 melanoma = test system: MDA-MB-435 melanoma
UO-31 renal = test system: UO-31 renal
ACHN renal = test system: ACHN renal
COLO 205 colon = test system: COLO 205 colon
786-0 renal = test system: 786-0 renal
MDA-MB-231 breast = test system: MDA-MB-231 breast
LOX IMVI melanoma = test system: LOX IMVI melanoma
HCT-116 colon = test system: HCT-116 colon
NCI-H226 lung = test system: NCI-H226 lung
TK-10 renal = test system: TK-10 renal
NCI/ADR-RES ovarian = test system: NCI/ADR-RES ovarian
SK-OV-3 ovarian = test system: SK-OV-3 ovarian

COc1cc(F)ccc1-c1cc(Nc2cc(CS(C)(=N)=O)ccn2)ncc1F (stereo not drawn)
GI50 (NCI-H522 lung): 149 nM
TGI (NCI-H522 lung): 0.385 µM
GI50 (K-562 leukemia): 136 nM
TGI (K-562 leukemia): 0.567 µM
GI50 (OVCAR-3 ovarian): 24.2 nM
TGI (OVCAR-3 ovarian): 80.1 nM
GI50 (SK-MEL-28 melanoma): 30.4 nM
TGI (SK-MEL-28 melanoma): 0.167 µM
GI50 (HOP-92 NSCLC): 62.9 nM
TGI (HOP-92 NSCLC): 46 µM
GI50 (HCT-15 colon): 38.7 nM
TGI (HCT-15 colon): > 100 µM
GI50 (SF-268 CNS): 17.1 nM
TGI (SF-268 CNS): 0.0445 µM
GI50 (HS 578T breast): 15.5 nM
TGI (HS 578T breast): 41.6 nM
GI50 (RPMI-8226 leukemia): 41 nM
TGI (RPMI-8226 leukemia): 138 nM
GI50 (SF-295 CNS): 35.3 nM
TGI (SF-295 CNS): 180 nM
GI50 (UACC-257 melanoma): 104 nM
TGI (UACC-257 melanoma): 251 nM
GI50 (SK-MEL-5 melanoma): 28.3 nM
TGI (SK-MEL-5 melanoma): 109 nM
GI50 (RXF 393 renal): 16 nM
TGI (RXF 393 renal): 37.6 nM
GI50 (HCC-2998 colon): 37.9 nM
TGI (HCC-2998 colon): 207 nM
GI50 (SNB-75 CNS): 50.9 nM
TGI (SNB-75 CNS): 201 nM
GI50 (NCI-H23 lung): 30.4 nM
TGI (NCI-H23 lung): 130 nM
GI50 (SNB-19 CNS): 44.6 nM
TGI (SNB-19 CNS): > 100 µM
GI50 (KM12 colon): 23.7 nM
TGI (KM12 colon): 0.0735 µM
GI50 (EKVX NSCLC): 73.9 nM
TGI (EKVX NSCLC): 498 nM
GI50 (OVCAR-4 ovarian): 165 nM
TGI (OVCAR-4 ovarian): 0.889 µM
GI50 (CCRF-CEM leukemia): 17.6 nM
TGI (CCRF-CEM leukemia): 36.2 nM
GI50 (IGROV1 ovarian): 33.7 nM
TGI (IGROV1 ovarian): > 100000 nM
GI50 (BT-549 breast): 26.2 nM
TGI (BT-549 breast): 0.074 µM
GI50 (HOP-62 NSCLC): 18.3 nM
TGI (HOP-62 NSCLC): 45.5 nM
GI50 (HT29 colon): 65.1 nM
TGI (HT29 colon): 0.257 µM
GI50 (A498 renal): 27 nM
TGI (A498 renal): > 100000 nM
GI50 (MOLT-4 leukemia): 27.3 nM
TGI (MOLT-4 leukemia): 89.1 nM
GI50 (M14 melanoma): 34.7 nM
TGI (M14 melanoma): 157 nM
GI50 (UACC-62 melanoma): 17.1 nM
TGI (UACC-62 melanoma): 49.2 nM
GI50 (OVCAR-8 ovarian): 30.5 nM
TGI (OVCAR-8 ovarian): 0.112 µM
GI50 (MALME-3M melanoma): 50.3 nM
TGI (MALME-3M melanoma): 178 nM
GI50 (MDA-MB-468 breast): 58.7 nM
TGI (MDA-MB-468 breast): 193 nM
GI50 (PC-3 prostate): 39.9 nM
TGI (PC-3 prostate): 0.25 µM
GI50 (NCI-H322M lung): 29.2 nM
TGI (NCI-H322M lung): 0.134 µM
GI50 (SF-539 CNS): 26.3 nM
TGI (SF-539 CNS): 69 nM
GI50 (HL-60(TB) leukemia): 15.4 nM
TGI (HL-60(TB) leukemia): 29.4 nM
GI50 (SN12C renal): 23.3 nM
TGI (SN12C renal): 0.121 µM
GI50 (T-47D breast): 46.2 nM
TGI (T-47D breast): > 100 µM
GI50 (A549 NSCLC): 42.9 nM
TGI (A549 NSCLC): > 100000 nM
GI50 (U251 glioblastoma): 43.3 nM
TGI (U251 glioblastoma): > 100 µM
GI50 (DU-145 prostate): 29.1 nM
TGI (DU-145 prostate): 0.0925 µM
GI50 (SW-620 colon): 43.7 nM
TGI (SW-620 colon): 0.475 µM
GI50 (CAKI-1 renal): 28.2 nM
TGI (CAKI-1 renal): > 100000 nM

CCN1[C@@H](C(=O)NC23CCC(C(=O)O)(CC2)CC3)[C@H](c2cccc(Cl)c2F)[C@]2(C(=O)Nc3cc(Cl)ccc32)C12CCCCC2
GI50 (NCI-H460 NSCLC): 29.4 nM
TGI (NCI-H460 NSCLC): 1080 nM
GI50 (NCI-H522 lung): 2410 nM
TGI (NCI-H522 lung): 6.92 µM
GI50 (K-562 leukemia): 2830 nM
TGI (K-562 leukemia): 11 µM
GI50 (SK-MEL-2 melanoma): 638 nM
TGI (SK-MEL-2 melanoma): 2160 nM
GI50 (OVCAR-3 ovarian): 1440 nM
TGI (OVCAR-3 ovarian): 2900 nM
GI50 (MCF7 breast): 26.9 nM
TGI (MCF7 breast): 1120 nM
GI50 (SK-MEL-28 melanoma): 2760 nM
TGI (SK-MEL-28 melanoma): 7.42 µM
GI50 (HOP-92 NSCLC): 1770 nM
TGI (HOP-92 NSCLC): 4.43 µM
GI50 (HCT-15 colon): 2660 nM
TGI (HCT-15 colon): 10.1 µM
GI50 (SF-268 CNS): 2340 nM
TGI (SF-268 CNS): 6.8 µM
GI50 (RPMI-8226 leukemia): 1260 nM
TGI (RPMI-8226 leukemia): 2510 nM
GI50 (SF-295 CNS): 1240 nM
TGI (SF-295 CNS): 2670 nM
GI50 (UACC-257 melanoma): 148 nM
TGI (UACC-257 melanoma): 431 nM
GI50 (SK-MEL-5 melanoma): 239 nM
TGI (SK-MEL-5 melanoma): 1810 nM
GI50 (OVCAR-5 ovarian): 1920 nM
TGI (OVCAR-5 ovarian): 4.66 µM
GI50 (RXF 393 renal): 1020 nM
TGI (RXF 393 renal): 2560 nM
GI50 (HCC-2998 colon): 1270 nM
TGI (HCC-2998 colon): 2910 nM
GI50 (NCI-H23 lung): 1490 nM
TGI (NCI-H23 lung): 3950 nM
GI50 (SNB-19 CNS): 3090 nM
TGI (SNB-19 CNS): 12.8 µM
GI50 (SR leukemia): < 10 nM
GI50 (MDA-MB-435 melanoma): 2260 nM
TGI (MDA-MB-435 melanoma): 5.65 µM
GI50 (KM12 colon): 2870 nM
TGI (KM12 colon): 9.12 µM
GI50 (OVCAR-4 ovarian): 2220 nM
TGI (OVCAR-4 ovarian): 7.32 µM
GI50 (CCRF-CEM leukemia): 1420 nM
TGI (CCRF-CEM leukemia): 2750 nM
GI50 (UO-31 renal): 19.3 nM
TGI (UO-31 renal): 161 nM
GI50 (IGROV1 ovarian): 244 nM
TGI (IGROV1 ovarian): 2770 nM
GI50 (ACHN renal): 19.4 nM
TGI (ACHN renal): 390 nM
GI50 (COLO 205 colon): 2200 nM
TGI (COLO 205 colon): 4.46 µM
GI50 (BT-549 breast): 1930 nM
TGI (BT-549 breast): 6.16 µM
GI50 (HOP-62 NSCLC): 1590 nM
TGI (HOP-62 NSCLC): 4190 nM
GI50 (HT29 colon): 3520 nM
TGI (HT29 colon): 13.9 µM
GI50 (A498 renal): 13.6 nM
TGI (A498 renal): 1090 nM
GI50 (MOLT-4 leukemia): < 10 nM
GI50 (M14 melanoma): 35 nM
TGI (M14 melanoma): 2370 nM
GI50 ([…]-0 renal): 3.49 µM
TGI (786-0 renal): 13.5 µM
GI50 (MDA-MB-231 breast): 3.13 µM
TGI (MDA-MB-231 breast): 14.2 µM
GI50 (UACC-62 melanoma): < 10 nM
TGI (UACC-62 melanoma): 364 nM
GI50 (OVCAR-8 ovarian): 3000 nM
TGI (OVCAR-8 ovarian): 11.4 µM
GI50 (MALME-3M melanoma): 14 nM
TGI (MALME-3M melanoma): 659 nM
GI50 (LOX IMVI melanoma): 323 nM
TGI (LOX IMVI melanoma): 1840 nM
GI50 (MDA-MB-468 breast): 1700 nM
TGI (MDA-MB-468 breast): 3610 nM
GI50 (PC-3 prostate): 2880 nM
TGI (PC-3 prostate): 9.4 µM
GI50 (NCI-H322M lung): 3870 nM
TGI (NCI-H322M lung): 15.1 µM
GI50 (SF-539 CNS): 2120 nM
TGI (SF-539 CNS): 5190 nM
GI50 (HL-60(TB) leukemia): 2030 nM
TGI (HL-60(TB) leukemia): 3460 nM
GI50 (HCT-116 colon): 30.3 nM
TGI (HCT-116 colon): 1490 nM
GI50 (NCI-H226 lung): < 10 nM
TGI (NCI-H226 lung): 81.7 nM
GI50 (SN12C renal): 3530 nM
TGI (SN12C renal): 12.7 µM
GI50 (T-47D breast): 1620 nM
TGI (T-47D breast): 6.27 µM
GI50 (A549 NSCLC): 45.2 nM
TGI (A549 NSCLC): 1140 nM
GI50 (U251 glioblastoma): 3070 nM
TGI (U251 glioblastoma): 11.5 µM
GI50 (DU-145 prostate): 3390 nM
TGI (DU-145 prostate): 12.3 µM
GI50 (TK-10 renal): 2890 nM
TGI (TK-10 renal): 11.4 µM
GI50 (SW-620 colon): 3790 nM
TGI (SW-620 colon): 13.4 µM
GI50 (NCI/ADR-RES ovarian): 3.64 µM
TGI (NCI/ADR-RES ovarian): 13.6 µM
GI50 (SK-OV-3 ovarian): 2960 nM
TGI (SK-OV-3 ovarian): 13.7 µM
GI50 (CAKI-1 renal): < 10 nM
TGI (CAKI-1 renal): 418 nM
